Laboratory results reported in patent US20240174679A1, “HETEROAROYL AMIDES AS LRRK2 INHIBITORS, PHARMACEUTICAL COMPOSITIONS, AND USES THEREOF” (MERCK SHARP & DOHME LLC, priority 2021, published 2024).

These compounds were tested against GST tagged truncated human mutant G2019S LRRK2 (Homo sapiens (Human), UniProt Q5S007, G2019S) (assay: LRRK2 Km ATP LanthaScreen Assay). Details: 134 μM ATP (Km ATP), LRRKtide substrate, negative log of mean IC50 (molar).
Type: biochemical
In short: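 Truncated GST-tagged G2019S LRRK2 (1.25 nM enzyme solution) was preincubated with compound for 15 min at rt, then reacted for 90 min with fluorescein-LRRKtide and 134 μM ATP (Km) in Tris pH 8.5/MgCl2 buffer. After an EDTA stop, TR-FRET used a Tb anti-pERM antibody (520/495 nm ratio). IC50 came from a 4-parameter fit and is reported as pIC50, mean of several runs.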

Sequence of GST tagged truncated human mutant G2019S LRRK2 (Q5S007 970-2527 G2019S): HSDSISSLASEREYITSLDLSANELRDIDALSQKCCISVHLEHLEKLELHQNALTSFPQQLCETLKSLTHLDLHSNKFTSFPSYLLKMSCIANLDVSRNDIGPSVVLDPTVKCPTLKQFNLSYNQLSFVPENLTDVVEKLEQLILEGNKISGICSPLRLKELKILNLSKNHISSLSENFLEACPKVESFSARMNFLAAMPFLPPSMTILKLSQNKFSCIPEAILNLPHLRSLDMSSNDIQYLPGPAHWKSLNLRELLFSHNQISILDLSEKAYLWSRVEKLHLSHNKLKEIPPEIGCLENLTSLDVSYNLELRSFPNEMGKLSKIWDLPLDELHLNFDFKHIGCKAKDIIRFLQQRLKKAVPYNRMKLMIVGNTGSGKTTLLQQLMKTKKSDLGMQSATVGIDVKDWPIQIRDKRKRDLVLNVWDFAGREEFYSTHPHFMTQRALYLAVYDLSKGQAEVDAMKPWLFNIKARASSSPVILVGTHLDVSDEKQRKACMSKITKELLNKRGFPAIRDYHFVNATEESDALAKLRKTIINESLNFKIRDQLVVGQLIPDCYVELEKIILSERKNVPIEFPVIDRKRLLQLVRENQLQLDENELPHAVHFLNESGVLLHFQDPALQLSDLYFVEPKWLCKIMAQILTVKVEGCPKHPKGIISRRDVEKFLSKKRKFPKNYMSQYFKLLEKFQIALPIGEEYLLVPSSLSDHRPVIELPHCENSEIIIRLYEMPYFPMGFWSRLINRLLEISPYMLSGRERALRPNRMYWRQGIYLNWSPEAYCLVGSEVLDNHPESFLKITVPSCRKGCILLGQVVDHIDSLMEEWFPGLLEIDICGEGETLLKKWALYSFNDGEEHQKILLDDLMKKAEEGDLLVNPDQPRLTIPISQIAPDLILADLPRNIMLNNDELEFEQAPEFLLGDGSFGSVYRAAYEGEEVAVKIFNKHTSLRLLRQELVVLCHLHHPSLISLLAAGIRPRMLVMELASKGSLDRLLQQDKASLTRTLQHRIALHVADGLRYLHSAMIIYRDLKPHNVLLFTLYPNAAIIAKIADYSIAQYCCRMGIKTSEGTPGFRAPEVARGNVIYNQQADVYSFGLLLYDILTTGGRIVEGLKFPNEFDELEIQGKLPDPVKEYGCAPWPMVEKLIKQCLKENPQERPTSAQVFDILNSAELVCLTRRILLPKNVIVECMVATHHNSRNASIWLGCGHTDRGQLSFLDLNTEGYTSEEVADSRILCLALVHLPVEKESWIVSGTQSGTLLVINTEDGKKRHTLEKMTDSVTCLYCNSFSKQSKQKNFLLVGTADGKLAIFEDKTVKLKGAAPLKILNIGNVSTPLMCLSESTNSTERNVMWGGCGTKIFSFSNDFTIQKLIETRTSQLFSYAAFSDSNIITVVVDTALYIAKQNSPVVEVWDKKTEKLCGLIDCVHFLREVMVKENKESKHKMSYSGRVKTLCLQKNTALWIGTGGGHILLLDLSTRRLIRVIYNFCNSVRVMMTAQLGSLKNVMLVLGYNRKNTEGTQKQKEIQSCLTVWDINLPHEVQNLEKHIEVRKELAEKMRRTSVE

First: Cn1cc(NC(=O)c2csc(-c3cn[nH]c3)n2)c(-c2ccncc2)n1 [Example 1-9, N-(1-methyl-3-pyridin-4-yl-1H-pyrazol-4-yl)-2-(1H-pyrazol-4-yl)-1,3-thiazole-4-carboxamide]
Second: Cn1cc(NC(=O)c2csc(-c3cn[nH]c3)n2)c(-c2ccc(F)cc2)n1 [Example 1-11, N-[3-(4-fluorophenyl)-1-methy1-1H-pyrazol-4-yl]-2-(1H-pyrazol-4-yl)-1,3-thiazole-4-carboxamide]
The “LRRK2 pIC50” value of the first is lower: 7.09 for the first, 7.90 for the second.

First: Cn1cc(-c2nccc(C(=O)Nc3cnn(C4CCC4)c3)n2)cn1 [Example 9-23, N-(1-cyclobutyl-1H-pyrazol-4-yl)-2-(1-methyl-1H-pyrazol-4-yl)pyrimidine-4-carboxamide]
Second: O=C(Nc1cnn(C2CC2)c1)c1csc(-c2ccn[nH]2)n1 [Example 9-40, N-(1-cyclopropyl-1H-pyrazol-4-yl)-2-(1H-pyrazol-5-yl)thiazole-4-carboxamide]
The “LRRK2 pIC50” value of the first is higher: 7.47 for the first, 7.06 for the second.

First: CCOCCn1cc(NC(=O)c2csc(-c3cn[nH]c3)n2)c(C(F)F)n1 [Example 7-40, N-[3-(difluoromethyl)-1-(2-ethoxyethyl)-1H-pyrazol-4-yl]-2-(1H-pyrazol-4-yl)-1,3-thiazole-4-carboxamide]
Second: Cn1cc(NC(=O)c2csc(-c3cn[nH]c3)n2)c(C(F)F)n1 [Example 1-15, N-[3-(difluoromethyl)-1-methyl-1H-pyrazol-4-yl]-2-(1H-pyrazol-4-yl)-1,3-thiazole-4-carboxamide]
The “LRRK2 pIC50” value of the first is lower: 6.97 for the first, 7.79 for the second.

Compared with `COc1nn(C2CC2)cc1NC(=O)c1csc(-c2cn[nH]c2)n1` [Example 1-37, N-(1-cyclopropyl-3-methoxy-1H-pyrazol-4-yl)-2-(1H-pyrazol-4-yl)-1,3-thiazole-4-carboxamide], `Cc1nn(C)cc1NC(=O)c1csc(-c2cn[nH]c2)n1` [Example 1-41, N-(1,3-dimethyl-1H-pyrazol-4-yl)-2-(1H-pyrazol-4-yl)-1,3-thiazole-4-carboxamide] is lower in “LRRK2 pIC50” value: 7.51 for the first, 7.23 for the second.

Compared with `Cn1cc(NC(=O)c2csc(-c3cn[nH]c3)n2)c(C(N)=O)n1` [Example 1-13, N-(3-carbamoyl-1-methyl-1H-pyrazol-4-yl)-2-(1H-pyrazol-4-yl)-1,3-thiazole-4-carboxamide], `O=C(Nc1cn(CC2CCCCO2)nc1C(F)F)c1csc(-c2cn[nH]c2)n1` (stereo not drawn) [Example 7-5, N-[3-(difluoromethyl)-1-(tetrahydro-2H-pyran-2-ylmethyl)-1H-pyrazol-4-yl]-2-(1H-pyrazol-4-yl)-1,3-thiazole-4-carboxamide] is lower in “LRRK2 pIC50” value: 8.17 for the first, 7.32 for the second.

Going from `CCn1cc(-c2nc(C(=O)Nc3cn(CC(F)(F)F)nc3OC)cs2)cn1` [Example 12-4, 2-(1-ethyl-1H-pyrazol-4-yl)-N-[3-methoxy-1-(2,2,2-trifluoroethyl)-1H-pyrazol-4-yl]-1,3-thiazole-4-carboxamide] to `O=C(Nc1cnn(CC2CCCO2)c1)c1csc(-c2cn[nH]c2)n1` (stereo not drawn) [Example 7-13, 2-(1H-pyrazol-4-yl)-N-[1-(tetrahydrofuran-2-ylmethyl)-1H-pyrazol-4-yl]-1,3-thiazole-4-carboxamide], the “LRRK2 pIC50” value rises from 6.57 to 6.84.

`O=C(Nc1cnn(CC2CCC2)c1)c1cccc(-c2cnn(Cc3cccnc3)c2)n1` [Example 9-36, N-[1-(cyclobutylmethyl)-1H-pyrazol-4-yl]-6-[1-(pyridin-3-ylmethyl)-1H-pyrazol-4-yl]pyridine-2-carboxamide] and `O=C(Nc1cnn(CC2CCC2)c1)c1cccc(-c2cccnc2)n1` [Example 9-34, N-[1-(cyclobutylmethyl)-1H-pyrazol-4-yl]-2,3′-bipyridine-6-carboxamide] are the same in “LRRK2 pIC50” value: 6.90 for the first, 6.90 for the second.

With `O=C(Nc1cnn(CC2CCC2)c1)c1cccc(-c2ccoc2)n1` [Example 9-5, N-[1-(cyclobutylmethyl)-1H-pyrazol-4-yl]-6-furan-3-ylpyridine-2-carboxamide] the “LRRK2 pIC50” value was 5.79.
